The values that follow come from patent US20230310427A1, “NEW THERAPEUTIC USE OF RILPIVIRINE” (UNIVERSITY OF SOUTH AUSTRALIA, priority 2020, published 2023).

The structures appear in SMILES notation.

Common to all, as to type: cell-based
Test [1] deals with p53 WT A2780 cells. Briefly: Apoptosis analysis (Annexin-V FITC/PI). To be noted: 48 hour treatments, various concentrations. Here is the method: (§1) Instead of ethanol fixation, the cell number of each sample was counted, and the cells were diluted to 1×10^5 cells with 1 mL PBS in fresh FACS tubes. Cells were centrifuged and then re-suspended in 1 mL of cold PBS (whole step repeated twice). Pelleted cells were resuspended in 100 µL binding buffer, and subsequently 3 µL of Annexin V and 3 µL of PI were added to all tubes and incubated in the dark for 15 min at room temperature. Following the incubation period, 200 µL of 1 x binding buffer was added. Samples were assessed using a flow cytometer (Cytoflex) within 1 h of staining and data were analysed using Cytexpert software.

For test [2], the system named is Jurkat cells. Briefly: Apoptosis analysis (Annexin-V FITC/PI). The conditions noted are these: 48 hour treatment, various concentrations. Here is the method:
as §1

Test [3] has as its system NB4 cells. Briefly: Apoptosis analysis (Annexin-V FITC/PI). To be noted: 48 hour treatment, various concentrations. Here is the method: as §1
For test [4], the system named is HL-60 cells. Briefly: Apoptosis analysis (Annexin-V FITC/PI). The conditions noted are these: 48 hour treatment, various concentrations. As to the method:
as §1

In test [5] the test system is OVCAR-5 cells. Briefly: Cell cycle analysis (flow cytometry). The conditions noted are these: 72 hour, 5 µM, 10 µM and 20 µM; p53 WT. Here is the method:
(§2) The effect of Rilpivirine on cell cycle distribution in different cancer cell lines was evaluated by flow cytometric analysis. Briefly, cells were seeded in 6-well plates at a density of 6 × 10^4 cells/well. All plates were incubated overnight at 37° C. in a 5% CO2 incubator. Following the incubation, the test compounds (Rilpivirine (Ril) and comparators, Alisertib (Ali; a known Aurora A inhibitor) and Etravirine (Etra; 4-[[6-amino-5-bromo-2-[(4-cyanophenyl)amino]-4-pyrimidinyl]oxy]-3,5-dimethylbenzonitrile - a structurally similar NNRTI drug compound sold under the brand name Intelence® (Janssen Therapeutics)) were added to individual wells and the plates were incubated at same condition for 24 h, 48 h or 72 h. Subsequently, the medium was removed from the wells and transferred into fluorescence-activated cell sorting (FACS) tubes. The adherent cells remaining were trypsinised, re-suspended in media and transferred into the FACS tubes. Cells were centrifuged, fixed with cold 70% ethanol for 15 min and pelleted. The pelleted cells were then re-suspended in 200 µL propidium iodide (PI) solution (50 µg/mL propidium iodide, 0.1 mg/mL ribonuclease A, 0.1% sodium citrate, 0.1% triton X-100) and incubated in the dark for 1.5 h at room temperature. Following the incubation, 200 µL PBS was added. Samples were assessed using a flow cytometer (Cytoflex; Beckman Coulter Inc, Brea, CA, United States of America) and data were analysed using the Cytexpert software.

Test [6] has as its system p53 wild-type (WT) A2780 cells. Briefly: Cell cycle analysis (flow cytometry). The conditions noted are these: 24, 48 and 72 hour. As to the method:
as §2

Test [7] has as its system T47D cells. Briefly: Cell cycle analysis (flow cytometry). The conditions noted are these: 48-hour treatment; p53 mutant. Here is the method: as §2
Background: In flow cytometry, cells or beads pass a laser one at a time.

Test [8] deals with Jurkat cells. Briefly: Cell cycle analysis (flow cytometry). The conditions noted are these: various concentrations, 24 hour. As to the method:
as §2

Test [9] has as its system NB4 cells. Briefly: Cell cycle analysis (flow cytometry). To be noted: various concentrations, 24 hour. As to the method: as §2
In test [10] the test system is Miapaca-2 (pancreatic) cancer cell lines. Briefly: Cell cycle analysis (flow cytometry). The conditions noted are these: 48 hours; data not shown. As to the method:
as §2

For test [11], the system named is HL-60 cells. Briefly: Cell cycle analysis (flow cytometry). As to the method:
as §2

Test [12] relates to U-937 cells. Briefly: Cell cycle analysis (flow cytometry). The conditions noted are these: various concentrations, 24 hour. As to the method: as §2
Test [13] relates to SKOV-3 cells. Briefly: Cell cycle analysis (flow cytometry). The conditions noted are these: 72 hours, 5 µM, 10 µM and 20 µM; p53 mutant; data not shown. Here is the method: as §2
For test [14], the system named is K-562 cells. Briefly: Cell cycle analysis (flow cytometry). To be noted: various concentrations, 24 hour. As to the method: as §2
The test system of test [15] is PC3 cells. Briefly: Cell cycle analysis (flow cytometry). To be noted: 48 hour treatment; p53 mutant. Here is the method: as §2

Turning to `Cc1cc(/C=C/C#N)cc(C)c1Nc1ccnc(Nc2ccc(C#N)cc2)n1` [Rilpivirine, 4-[[4-[4-[(E)-2-cyanoethenyl]-2,6-dimethylanilino]pyrimidin-2-yl]amino]benzonitrile], the induction of apoptosis result was “induces apoptosis in this cell line in a dose-dependent manner” in test [1], “induces apoptosis in all of these cell lines in a dose-dependent manner” in test [2], “induces apoptosis in all of these cell lines in a dose-dependent manner” in test [3] and “induces apoptosis in all of these cell lines in a dose-dependent manner” in test [4]. Moreover, the cell cycle arrest result was “arrests the cells in the G1 phase or accumulated in Sub-G1 phase at higher concentrations” in [5]; “arrests the cells in the G1 phase” in test [6] (10 µM); “arrest T47D breast cancer cells in G2/M phase” in [7]; “arrests NB4 and Jurkat cells in the G2/M phase in a dose-dependent manner” in test [8]; “arrests NB4 and Jurkat cells in the G2/M phase in a dose-dependent manner” in test [9]; “G2/M arrest increased with increasing concentrations of the drug” in test [10]. Further, the cell cycle arrest result in [11] (5, 10 and 20 µM for 24 hrs, p53 null) is “arrested in the G2/M Phase”; in [12], “arrests both of these cell lines in the G2/M phase in a dose-dependent manner”; in [13], “caused G2/M arrest in a dose-dependent manner”; in test [14] it was “arrests both of these cell lines in the G2/M phase in a dose-dependent manner”; in test [15], “induce G2/M arrest”. The cell cycle distribution result in test [6] (20 µM) is reported as “increased number of cells accumulated in Sub-G1 phase”. Further, the “numbers of cells in G2/M” value in test [11] (24 hour treatment, versus diluent only) was “approximately doubled”.
